# Reference: the supplement of paper PMC10307832
# How the values were obtained:
# Assay in all cases: relative viability (nuclei count vs DMSO), 5 days (fraction); higher = more cells survive
# COR-L 105 = test system: COR-L 105
# Summary of the method: (§1)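 Lung cancer cell lines were pin-tool dosed in 1536-well plates on the day after seeding, with either a lone drug or a fixed anchor-drug dose plus five library-drug doses (not always all listed) in √10 steps. Nuclei were counted on 4× images after 5 days. Relative viability is the ratio of treated-well to vehicle-well nuclei counts, with each value a median of duplicate plates.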
# COR-L23 = test system: COR-L23
# Summary of the method: as §1
# HARA = test system: HARA
# Summary of the method: as §1
# HCC-15 = test system: HCC-15
# Summary of the method: as §1
# HOP-62 = test system: HOP-62
# Summary of the method: as §1
# NCI-H1355 = test system: NCI-H1355
# Summary of the method: as §1
# NCI-H1395 = test system: NCI-H1395
# Summary of the method: as §1
# NCI-H1734 = test system: NCI-H1734
# Summary of the method: as §1
# NCI-H1755 = test system: NCI-H1755
# Summary of the method: as §1
# NCI-H1793 = test system: NCI-H1793
# Summary of the method: as §1
# NCI-H1993 = test system: NCI-H1993
# Summary of the method: as §1
# NCI-H2009 = test system: NCI-H2009
# Summary of the method: as §1
# NCI-H2170 = test system: NCI-H2170
# Summary of the method: as §1
# NCI-H2228 = test system: NCI-H2228
# Summary of the method: as §1
# NCI-H2347 = test system: NCI-H2347
# Summary of the method: as §1
# NCI-H358 = test system: NCI-H358
# Summary of the method: as §1
# NCI-H522 = test system: NCI-H522
# Summary of the method: as §1
# NCI-H647 = test system: NCI-H647
# Summary of the method: as §1
# NCI-H838 = test system: NCI-H838
# Summary of the method: as §1
# SK-MES-1 = test system: SK-MES-1
# Summary of the method: as §1
# UMC-11 = test system: UMC-11
# Summary of the method: as §1
smiles,measurement,setting,value
COc1cc2nccc(Oc3ccc(NC(=O)Nc4cc(C)on4)c(Cl)c3)c2cc1OC [Tivozanib] + O=C(CCCCCCC(=O)Nc1ccccc1)NO [Vorinostat] (partner 1 µM),relative viability,COR-L 105; first compound 0.005 µM,0.696
same,relative viability,COR-L 105; first compound 0.01581 µM,0.743
same,relative viability,COR-L 105; first compound 0.05 µM,0.801
same,relative viability,COR-L 105; first compound 0.1581 µM,0.821
same,relative viability,COR-L 105; first compound 0.5 µM,0.794
same,relative viability,COR-L23; first compound 0.005 µM,0.444
same,relative viability,COR-L23; first compound 0.01581 µM,0.454
same,relative viability,COR-L23; first compound 0.05 µM,0.607
same,relative viability,COR-L23; first compound 0.1581 µM,0.33
same,relative viability,COR-L23; first compound 0.5 µM,0.311
same,relative viability,HARA; first compound 0.005 µM,0.422
same,relative viability,HARA; first compound 0.01581 µM,0.456
same,relative viability,HARA; first compound 0.05 µM,0.594
same,relative viability,HARA; first compound 0.1581 µM,0.563
same,relative viability,HARA; first compound 0.5 µM,0.507
same,relative viability,HCC-15; first compound 0.005 µM,0.797
same,relative viability,HCC-15; first compound 0.01581 µM,0.896
same,relative viability,HCC-15; first compound 0.05 µM,0.857
same,relative viability,HCC-15; first compound 0.1581 µM,0.863
same,relative viability,HCC-15; first compound 0.5 µM,0.886
same,relative viability,HOP-62; first compound 0.005 µM,0.633
same,relative viability,HOP-62; first compound 0.01581 µM,0.638
same,relative viability,HOP-62; first compound 0.05 µM,0.652
same,relative viability,HOP-62; first compound 0.1581 µM,0.376
same,relative viability,HOP-62; first compound 0.5 µM,0.434
same,relative viability,NCI-H1355; first compound 0.005 µM,0.58
same,relative viability,NCI-H1355; first compound 0.01581 µM,0.612
same,relative viability,NCI-H1355; first compound 0.05 µM,0.68
same,relative viability,NCI-H1355; first compound 0.1581 µM,0.437
same,relative viability,NCI-H1355; first compound 0.5 µM,0.588
same,relative viability,NCI-H1395; first compound 0.005 µM,0.476
same,relative viability,NCI-H1395; first compound 0.01581 µM,0.747
same,relative viability,NCI-H1395; first compound 0.05 µM,0.932
same,relative viability,NCI-H1395; first compound 0.1581 µM,0.58
same,relative viability,NCI-H1395; first compound 0.5 µM,0.424
same,relative viability,NCI-H1734; first compound 0.005 µM,0.685
same,relative viability,NCI-H1734; first compound 0.01581 µM,0.79
same,relative viability,NCI-H1734; first compound 0.05 µM,0.813
same,relative viability,NCI-H1734; first compound 0.1581 µM,0.578
same,relative viability,NCI-H1734; first compound 0.5 µM,0.57
same,relative viability,NCI-H1755; first compound 0.005 µM,0.742
same,relative viability,NCI-H1755; first compound 0.01581 µM,0.786
same,relative viability,NCI-H1755; first compound 0.05 µM,0.739
same,relative viability,NCI-H1755; first compound 0.1581 µM,0.706
same,relative viability,NCI-H1755; first compound 0.5 µM,0.587
same,relative viability,NCI-H1793; first compound 0.005 µM,0.606
same,relative viability,NCI-H1793; first compound 0.01581 µM,0.706
same,relative viability,NCI-H1793; first compound 0.05 µM,0.778
same,relative viability,NCI-H1793; first compound 0.5 µM,0.742
same,relative viability,NCI-H1993; first compound 0.005 µM,0.692
same,relative viability,NCI-H1993; first compound 0.01581 µM,0.579
same,relative viability,NCI-H1993; first compound 0.05 µM,0.965
same,relative viability,NCI-H1993; first compound 0.1581 µM,0.618
same,relative viability,NCI-H1993; first compound 0.5 µM,0.585
same,relative viability,NCI-H2009; first compound 0.005 µM,0.623
same,relative viability,NCI-H2009; first compound 0.01581 µM,0.785
same,relative viability,NCI-H2009; first compound 0.05 µM,0.741
same,relative viability,NCI-H2009; first compound 0.1581 µM,0.738
same,relative viability,NCI-H2009; first compound 0.5 µM,0.621
same,relative viability,NCI-H2170; first compound 0.005 µM,0.74
same,relative viability,NCI-H2170; first compound 0.01581 µM,0.782
same,relative viability,NCI-H2170; first compound 0.05 µM,0.856
same,relative viability,NCI-H2170; first compound 0.5 µM,0.816
same,relative viability,NCI-H2228; first compound 0.005 µM,0.606
same,relative viability,NCI-H2228; first compound 0.01581 µM,0.723
same,relative viability,NCI-H2228; first compound 0.05 µM,0.761
same,relative viability,NCI-H2228; first compound 0.1581 µM,0.599
same,relative viability,NCI-H2228; first compound 0.5 µM,0.626
same,relative viability,NCI-H2347; first compound 0.005 µM,0.612
same,relative viability,NCI-H2347; first compound 0.01581 µM,0.577
same,relative viability,NCI-H2347; first compound 0.05 µM,0.61
same,relative viability,NCI-H2347; first compound 0.1581 µM,0.797
same,relative viability,NCI-H2347; first compound 0.5 µM,0.517
same,relative viability,NCI-H358; first compound 0.005 µM,0.652
same,relative viability,NCI-H358; first compound 0.01581 µM,0.761
same,relative viability,NCI-H358; first compound 0.05 µM,0.779
same,relative viability,NCI-H358; first compound 0.1581 µM,0.62
same,relative viability,NCI-H358; first compound 0.5 µM,0.37
same,relative viability,NCI-H522; first compound 0.005 µM,1
same,relative viability,NCI-H522; first compound 0.01581 µM,1
same,relative viability,NCI-H522; first compound 0.05 µM,0.822
same,relative viability,NCI-H522; first compound 0.1581 µM,0.721
same,relative viability,NCI-H522; first compound 0.5 µM,0.809
same,relative viability,NCI-H647; first compound 0.005 µM,0.555
same,relative viability,NCI-H647; first compound 0.01581 µM,0.654
same,relative viability,NCI-H647; first compound 0.05 µM,0.692
same,relative viability,NCI-H647; first compound 0.1581 µM,0.631
same,relative viability,NCI-H647; first compound 0.5 µM,0.48
same,relative viability,NCI-H838; first compound 0.005 µM,0.75
same,relative viability,NCI-H838; first compound 0.01581 µM,0.792
same,relative viability,NCI-H838; first compound 0.05 µM,0.802
same,relative viability,NCI-H838; first compound 0.1581 µM,0.746
same,relative viability,NCI-H838; first compound 0.5 µM,0.696
same,relative viability,SK-MES-1; first compound 0.005 µM,1.03
same,relative viability,SK-MES-1; first compound 0.01581 µM,1.07
same,relative viability,SK-MES-1; first compound 0.05 µM,1.13
same,relative viability,SK-MES-1; first compound 0.1581 µM,1.07
same,relative viability,SK-MES-1; first compound 0.5 µM,0.996
same,relative viability,UMC-11; first compound 0.005 µM,0.404
same,relative viability,UMC-11; first compound 0.01581 µM,0.36
same,relative viability,UMC-11; first compound 0.05 µM,0.349
same,relative viability,UMC-11; first compound 0.1581 µM,0.328
same,relative viability,UMC-11; first compound 0.5 µM,0.329
